Results on 22 compounds are retold here after patent publication US20250026743A1, “HETEROARYL-LINKED ANALOGS AS MGLU5 NEGATIVE ALLOSTERIC MODULATORS AND METHODS OF MAKING AND USING THE SAME” (Vanderbilt University, priority 2021, published 2025).

As usually defined, the IC50 is the concentration that gives 50% inhibition.

The assay has as its target T1, hmGlu5 (Homo sapiens, UniProt P41594).
T1 construct: expressed in transfected cells; host or cells: HEK 293A
In words: mGlu5 Ca2+ flux assay in HEK 293A cells (negative allosteric modulation of glutamate EC80 response). Type of assay: cell-based. The conditions noted are these: for remaining activity at 30 µM: HEK293-A, read-out: hmGlu5 NAM Emin (%). The essentials: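 HEK 293A cells stably expressing rat or human mGlu5, Fluo-4 AM loaded; compound added 2.3 min before glutamate EC20, then EC80; Ca2+ fluorescence peak amplitudes (F/F0) normalised to glutamate max. IC50 from 4-parameter logistic fit, 10-point 1:3 curves, top 30 μM; partial NAMs plateau above 10% Glu Max.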

The mark [1] stands for this setting: HEK 293A cells, Ca2+ flux, glutamate EC80, >10,000 = decrease without plateau, read-out: hmGlu5 NAM IC50.

Where two headings read alike, the source gives them in different places.

T1 sequence (P41594 21-1212): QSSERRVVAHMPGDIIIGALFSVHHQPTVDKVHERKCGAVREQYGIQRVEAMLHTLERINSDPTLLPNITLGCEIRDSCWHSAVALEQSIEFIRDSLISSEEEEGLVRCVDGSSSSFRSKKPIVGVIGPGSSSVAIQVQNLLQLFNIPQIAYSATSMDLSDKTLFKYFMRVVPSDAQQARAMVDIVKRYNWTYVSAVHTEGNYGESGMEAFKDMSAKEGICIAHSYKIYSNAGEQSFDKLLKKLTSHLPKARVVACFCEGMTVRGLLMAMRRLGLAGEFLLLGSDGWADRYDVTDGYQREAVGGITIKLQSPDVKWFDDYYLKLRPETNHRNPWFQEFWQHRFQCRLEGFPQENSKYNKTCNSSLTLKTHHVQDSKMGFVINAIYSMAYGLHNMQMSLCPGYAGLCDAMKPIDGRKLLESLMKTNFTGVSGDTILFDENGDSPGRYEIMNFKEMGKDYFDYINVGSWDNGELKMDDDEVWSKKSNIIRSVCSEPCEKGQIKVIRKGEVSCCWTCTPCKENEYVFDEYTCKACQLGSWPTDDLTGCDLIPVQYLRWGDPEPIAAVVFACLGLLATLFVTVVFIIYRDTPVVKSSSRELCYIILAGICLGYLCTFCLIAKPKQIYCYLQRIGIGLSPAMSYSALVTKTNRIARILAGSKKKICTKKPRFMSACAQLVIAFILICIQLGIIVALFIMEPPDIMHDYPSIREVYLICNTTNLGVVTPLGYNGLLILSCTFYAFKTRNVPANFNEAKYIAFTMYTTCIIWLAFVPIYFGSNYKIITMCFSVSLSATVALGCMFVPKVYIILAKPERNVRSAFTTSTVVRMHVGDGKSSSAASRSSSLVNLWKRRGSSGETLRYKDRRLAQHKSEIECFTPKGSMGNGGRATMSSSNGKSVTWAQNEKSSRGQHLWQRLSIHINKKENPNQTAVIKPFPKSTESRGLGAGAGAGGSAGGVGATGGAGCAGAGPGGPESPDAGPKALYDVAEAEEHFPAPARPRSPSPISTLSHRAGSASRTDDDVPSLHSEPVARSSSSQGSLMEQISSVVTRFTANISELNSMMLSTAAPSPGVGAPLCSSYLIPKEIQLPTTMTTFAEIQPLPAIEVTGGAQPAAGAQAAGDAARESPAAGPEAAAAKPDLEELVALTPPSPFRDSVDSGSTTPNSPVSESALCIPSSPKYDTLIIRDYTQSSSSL

For the compound `Fc1ccc(-c2nc(-c3cc(-c4cncc(F)c4)cc(C(F)F)n3)no2)nc1` [Compound 61, 3-(6′-(difluoromethyl)-5-fluoro-[3,4′-bipyridin]-2′-yl)-5-(5-fluoropyridin-2-yl)-1,2,4-oxadiazole], the remaining activity at 30 µM (% Glu max at 30 μM) was determined as 6%. For the same compound, the IC50 under setting [1] was 125 nM.

On to `Cc1nc(-c2noc(-c3ccc(F)cn3)n2)cc(-c2cncc(C(C)(C)O)c2)c1F` [Compound 62, 2-(3′-fluoro-6′-(5-(5-fluoropyridin-2-yl)-1,2,4-oxadiazol-3-yl)-2′-methyl-[3,4′-bipyridin]-5-yl)propan-2-ol], for which the remaining activity at 30 µM (% Glu max at 30 μM) was determined as 5%. Besides, the IC50 under setting [1] stood at 1290 nM.

Consider `Cc1ccncc1-c1cc(-c2nc(-c3cccc(F)c3)c[nH]2)nc(C)c1F` [Compound 63, 3′-fluoro-6′-(4-(3-fluorophenyl)-1H-imidazol-2-yl)-2′,4-dimethyl-3,4′-bipyridine], for which the remaining activity at 30 µM (% Glu max at 30 μM) was found to be 4%. Under setting [1], the 50% inhibitory concentration (IC50) was determined as 1090 nM.

`Cc1ccc(-c2nc(-c3cc(-c4cnccc4C)c(F)c(C)n3)no2)nc1` [Compound 64, 3-(5′-fluoro-4,6′-dimethyl-[3,4′-bipyridin]-2′-yl)-5-(5-methylpyridin-2-yl)-1,2,4-oxadiazole]: the remaining activity at 30 µM (% Glu max at 30 μM) was determined as 39%. Moreover, under setting [1], the IC50 is over 10000 nM.

As for `Cc1ccn(Cc2nc(-c3cc(-c4cnccc4C)c(F)c(C)n3)no2)n1` [Compound 65, 3-(5′-fluoro-4,6′-dimethyl-[3,4′-bipyridin]-2′-yl)-5-((3-methyl-1H-pyrazol-1-yl)methyl)-1,2,4-oxadiazole], the remaining activity at 30 µM (% Glu max at 30 μM) stood at 36%. Further, under setting [1], the IC50 is over 10000 nM.

Turning to `Cc1cc(F)nc(-c2cc(-c3noc(-c4ccc(F)cn4)n3)nc(C)c2F)c1` [Compound 66, 3-(5′,6-difluoro-4,6′-dimethyl-[2,4′-bipyridin]-2′-yl)-5-(5-fluoropyridin-2-yl)-1,2,4-oxadiazole], the remaining activity at 30 µM (% Glu max at 30 μM) was 9%. In addition, the IC50 under setting [1] came to 1890 nM.

On to `Cc1nc(-c2noc(-c3ccc(F)cn3)n2)cc(-c2cc(F)cc(F)c2)c1F` [Compound 67, 3-(4-(3,5-difluorophenyl)-5-fluoro-6-methylpyridin-2-yl)-5-(5-fluoropyridin-2-yl)-1,2,4-oxadiazole], for which the remaining activity at 30 µM (% Glu max at 30 μM) was found to be 3%. Besides, under setting [1], the concentration for half-maximal inhibition (IC50) turned out to be 161 nM.

Take `Cc1nc(-c2noc(-c3ccc(F)cn3)n2)cc(-c2cncc(C#N)c2)c1F` [Compound 68, 3′-fluoro-6′-(5-(5-fluoropyridin-2-yl)-1,2,4-oxadiazol-3-yl)-2′-methyl-[3,4′-bipyridine]-5-carbonitrile]: the remaining activity at 30 µM (% Glu max at 30 μM) was found to be 3%. The IC50 under setting [1] came to 757 nM.

On to `Cc1nc(-c2noc(-c3ccc(F)cn3)n2)cc(-c2cnccc2Cl)c1F` [Compound 69, 3-(4-chloro-5′-fluoro-6′-methyl-[3,4′-bipyridin]-2′-yl)-5-(5-fluoropyridin-2-yl)-1,2,4-oxadiazole], for which the remaining activity at 30 µM (% Glu max at 30 μM) stood at 3%. Moreover, under setting [1], the IC50 worked out at 109 nM.

Turning to `Cc1nc(-c2noc(-c3ccc(F)cn3)n2)cc(-c2cc(Cl)cc(C#N)c2)c1F` [Compound 70, 3-chloro-5-(3-fluoro-6-(5-(5-fluoropyridin-2-yl)-1,2,4-oxadiazol-3-yl)-2-methylpyridin-4-yl)benzonitrile], the remaining activity at 30 µM (% Glu max at 30 μM) was 3%. The 50% inhibitory concentration (IC50) under setting [1] was found to be 206 nM.

Turning to `Cc1cc(CC2CCOCC2)cc(-c2noc(-c3ccc(F)cn3)n2)n1` [Compound 71, 5-(5-fluoropyridin-2-yl)-3-(6-methyl-4-((tetrahydro-2H-pyran-4-yl)methyl)pyridin-2-yl)-1,2,4-oxadiazole], the remaining activity at 30 µM (% Glu max at 30 μM) turned out to be 45%. The IC50 under setting [1] is over 10000 nM.

With `Cc1cc(-c2cncc(F)c2)cc(-c2noc(-c3nc(C)cs3)n2)n1` [Compound 72, 3-(5-fluoro-6′-methyl-[3,4′-bipyridin]-2′-yl)-5-(4-methylthiazol-2-yl)-1,2,4-oxadiazole], under “% Glu max at 30 μM”, the remaining activity at 30 µM is 11%. Under setting [1], the 50% inhibitory concentration (IC50) was 917 nM.

Consider `COc1ccncc1-c1cc(-c2nnc(-c3ccc(F)cn3)o2)nc(C)c1F` [Compound 73, 2-(5′-fluoro-4-methoxy-6′-methyl-[3,4′-bipyridin]-2′-yl)-5-(5-fluoropyridin-2-yl)-1,3,4-oxadiazole], for which, for the setting “% Glu max at 30 μM”, the remaining activity at 30 µM stood at 2%. For the same compound, the IC50 under setting [1] came out at 298 nM.

Turning to `Cc1nc(-c2nnc(-c3ccc(F)cn3)o2)cc(-c2cnn(C(F)F)c2)c1F` [Compound 74, 2-(4-(1-(difluoromethyl)-1H-pyrazol-4-yl)-5-fluoro-6-methylpyridin-2-yl)-5-(5-fluoropyridin-2-yl)-1,3,4-oxadiazole], the remaining activity at 30 µM (% Glu max at 30 μM) worked out at 2%. The IC50 under setting [1] is 148 nM.

For the compound `CCn1cc(-c2cc(-c3nnc(-c4ccc(F)cn4)o3)nc(C)c2F)cn1` [Compound 75, 2-(4-(1-ethyl-1H-pyrazol-4-yl)-5-fluoro-6-methylpyridin-2-yl)-5-(5-fluoropyridin-2-yl)-1,3,4-oxadiazole], the remaining activity at 30 µM (% Glu max at 30 μM) was determined as 2%. For the same compound, under setting [1], the concentration for half-maximal inhibition (IC50) turned out to be 591 nM.

Regarding `COc1ncc(-c2cc(-c3nnc(-c4ccc(F)cn4)o3)nc(C)c2F)cc1F` [Compound 76, 2-(5,5′-difluoro-6-methoxy-6′-methyl-[3,4′-bipyridin]-2′-yl)-5-(5-fluoropyridin-2-yl)-1,3,4-oxadiazole], under “% Glu max at 30 μM”, the remaining activity at 30 µM was 9%. For the same compound, the IC50 under setting [1] turned out to be 5750 nM.

Consider `Cc1nc(-c2nnc(-c3ccc(F)cn3)o2)cc(-c2cnccc2Cl)c1F` [Compound 77, 2-(4-chloro-5′-fluoro-6′-methyl-[3,4′-bipyridin]-2′-yl)-5-(5-fluoropyridin-2-yl)-1,3,4-oxadiazole], for which the remaining activity at 30 µM (% Glu max at 30 μM) was 3%. Also, the 50% inhibitory concentration (IC50) under setting [1] stood at 138 nM.

Consider `Fc1ccc(-c2noc(-c3cc(-c4cncc(F)c4)cc(C(F)F)n3)n2)nc1` [Compound 78, 5-(6′-(difluoromethyl)-5-fluoro-[3,4′-bipyridin]-2′-yl)-3-(5-fluoropyridin-2-yl)-1,2,4-oxadiazole], for which, where the note is “% Glu max at 30 μM”, the remaining activity at 30 µM was 2%. Under setting [1], the IC50 was 149 nM.

Turning to `Cc1nc(-c2nnc(-c3ccccn3)o2)cc(-c2cncc(F)c2)c1F` [Compound 79, 2-(5,5′-difluoro-6′-methyl-[3,4′-bipyridin]-2′-yl)-5-(pyridin-2-yl)-1,3,4-oxadiazole], the remaining activity at 30 µM turned out to be 2%. Also, the half-maximal inhibitory concentration (IC50) under setting [1] is 673 nM.

On to `Cc1nc(-c2nnc(-c3cccnc3)o2)cc(-c2cncc(F)c2)c1F` [Compound 80, 2-(5,5′-difluoro-6′-methyl-[3,4′-bipyridin]-2′-yl)-5-(pyridin-3-yl)-1,3,4-oxadiazole], for which the remaining activity at 30 µM was found to be 58%. Further, the half-inhibitory concentration (IC50) under setting [1] came to 3340 nM.

With `Cc1nc(-c2nnc(-c3ccncc3)o2)cc(-c2cncc(F)c2)c1F` [Compound 81, 2-(5,5′-difluoro-6′-methyl-[3,4′-bipyridin]-2′-yl)-5-(pyridin-4-yl)-1,3,4-oxadiazole], the 50% inhibitory concentration (IC50) was over 10000 nM and the remaining activity at 30 µM worked out at 55%.

On to `Cc1nc(-c2nnc(-c3ccc(F)cc3)o2)cc(-c2cncc(F)c2)c1F` [Compound 82, 2-(5,5′-difluoro-6′-methyl-[3,4′-bipyridin]-2′-yl)-5-(4-fluorophenyl)-1,3,4-oxadiazole], for which the remaining activity at 30 µM was 2%. The IC50 under setting [1] came out at 778 nM.
